According to patent publication US7491721B2, “Antimycobacterial pharmaceutical composition” (priority 2004, dated 2009):

How the values were obtained:
[1] = Acute toxicity by oral route in mice; settings: mouse, in vivo
Description: (§1) Acute toxicity of the compound of formula (I) was determined in rodents by oral route.

[2] = test system: sensitive strain of MTB; assay: Murine model of pulmonary tuberculosis, mice infected with sensitive strain; format: in vivo, Mycobacterium tuberculosis; settings: for dose giving 2 log reduction in the organs: animals infected with sensitive strain
[3] = Preliminary pharmacokinetics of compound of formula (I) in dog; settings: serum, 12.5 mg
Description: (§2) Preliminary Pharmacokinetics studies of the compound of formula (I) was performed in mice and dog to determine bioavailibility and serum levels achieved and maintained by the compounds.

[4] = in vivo; settings: dog, po, 12.5 mg
Description: as §2

[5] = Pharmacokinetics of the combination with rifampicin and pyrazinamide in mice; settings: mouse, in vivo, po; for half-life: T½
[6] = test system: bacterial strains used in the Ames Mutagenicity test; assay: Ames Mutagenicity test; format: cell-based; settings: all the bacterial strains used
[7] = Acute toxicity by oral route in rats; settings: rat, in vivo
Description: as §1

[8] = in vivo; settings: mouse, po, 25 mg/kg
[9] = Preliminary pharmacokinetics of compound of formula (I) in mice; settings: mouse, in vivo
Description: as §2

[10] = combination study, one month, doses mg/kg: (I) 25.0 where present, INH 25.0, RIF 20.0, PYR 150.0, ETH 100.0
[11] = combination study, three months, doses mg/kg: (I) 25.0 where present, INH 25.0, RIF 20.0, PYR 150.0, ETH 100.0
[12] = combination study, two months, doses mg/kg: (I) 25.0 where present, INH 25.0, RIF 20.0, PYR 150.0, ETH 100.0
[13] = monotherapy 12.5 mg/kg, 8 Weeks Treatment (two months)
[14] = monotherapy 12.5 mg/kg, 12 Weeks Treatment (three months)
[15] = monotherapy 12.5 mg/kg, one month of treatment
[16] = monotherapy 25 mg/kg, 8 Weeks Treatment (two months)
[17] = monotherapy 25 mg/kg, 12 Weeks Treatment (three months)
[18] = monotherapy 25 mg/kg, one month of treatment
[19] = monotherapy 50 mg/kg, 8 Weeks Treatment (two months)
[20] = monotherapy 50 mg/kg, 12 Weeks Treatment (three months)
[21] = monotherapy 50 mg/kg, one month of treatment
[22] = 12.5 mg/kg, (I) alone 12.5 mg/kg
[23] = given together: (I) 12.5 + RIF 20.0 + PYR 150.0 mg/kg
[24] = given together without (I): RIF 20.0 + PYR 150.0 mg/kg

Cc1c(CN2CCN(c3cccc(C(F)(F)F)c3)CC2)cc(-c2ccccc2)n1NC(=O)c1ccncc1 [Compound of formula (I)]
LD50 [1]: 700 mg/kg | dose giving 2 log reduction in the organs [2]: 12.5 mg/kg | Mean Log10CFU in organs of mice infected with sensitive strain of MTB, Lung [2, 10]: 3.11 ± 0.38 Log10CFU | Mean Log10CFU in organs of mice infected with sensitive strain of MTB, Spleen [2, 10]: 2.42 ± 0.4 Log10CFU | Mean Log10CFU in organs of mice infected with sensitive strain of MTB, Lung [2, 11]: 0.82 ± 0.91 Log10CFU | Mean Log10CFU in organs of mice infected with sensitive strain of MTB, Spleen [2, 11]: 1.09 ± 0.83 Log10CFU | Mean Log10CFU in organs of mice infected with sensitive strain of MTB, Lung [2, 12]: 1.86 ± 0.94 Log10CFU | Mean Log10CFU in organs of mice infected with sensitive strain of MTB, Spleen [2, 12]: 2.60 ± 0.45 Log10CFU | Mean Log10CFU in organs of mice infected with sensitive strain of MTB, Lung [2, 13]: 3.44 ± 0.69 Log10CFU | Mean Log10CFU in organs of mice infected with sensitive strain of MTB, Spleen [2, 13]: 2.75 ± 0.63 Log10CFU | Mean Log10CFU in organs of mice infected with sensitive strain of MTB, Lung [2, 14]: 2.76 ± 0.53 Log10CFU | Mean Log10CFU in organs of mice infected with sensitive strain of MTB, Spleen [2, 14]: 2.68 ± 0.27 Log10CFU | Mean Log10CFU in organs of mice infected with sensitive strain of MTB, Lung [2, 15]: 2.5 ± 0.35 Log10CFU | Mean Log10CFU in organs of mice infected with sensitive strain of MTB, Spleen [2, 15]: 2.89 ± 0.32 Log10CFU | Mean Log10CFU in organs of mice infected with sensitive strain of MTB, Lung [2, 16]: 2.89 ± 0.73 Log10CFU | Mean Log10CFU in organs of mice infected with sensitive strain of MTB, Spleen [2, 16]: 2.37 ± 0.68 Log10CFU | Mean Log10CFU in organs of mice infected with sensitive strain of MTB, Lung [2, 17]: 1.71 ± 1.24 Log10CFU | Mean Log10CFU in organs of mice infected with sensitive strain of MTB, Spleen [2, 17]: 1.63 ± 0.98 Log10CFU | Mean Log10CFU in organs of mice infected with sensitive strain of MTB, Lung [2, 18]: 2.3 ± 0.63 Log10CFU | Mean Log10CFU in organs of mice infected with sensitive strain of MTB, Spleen [2, 18]: 2.42 ± 0.15 Log10CFU | Mean Log10CFU in organs of mice infected with sensitive strain of MTB, Lung [2, 19]: 2.20 ± 0.56 Log10CFU | Mean Log10CFU in organs of mice infected with sensitive strain of MTB, Spleen [2, 19]: 2.17 ± 0.46 Log10CFU | Mean Log10CFU in organs of mice infected with sensitive strain of MTB, Lung [2, 20]: 1.46 ± 1.06 Log10CFU | Mean Log10CFU in organs of mice infected with sensitive strain of MTB, Spleen [2, 20]: 1.56 ± 1.12 Log10CFU | Mean Log10CFU in organs of mice infected with sensitive strain of MTB, Lung [2, 21]: 2.1 ± 0.36 Log10CFU | Mean Log10CFU in organs of mice infected with sensitive strain of MTB, Spleen [2, 21]: 2.28 ± 0.38 Log10CFU | AUC(0-t) ([3]; iv): 20000 ng·h/mL | Cmax ([3]; iv): 8650 ng/mL | Tmax ([3]; iv): 3.48 h | AUC(0-t) ([3]; po): 10600 ng·h/mL | Cmax ([3]; po): 3380 ng/mL | Tmax ([3]; po): 0.75 h | bioavailability ([3]; po): 56.4% | half-life [4]: 5.07 h | AUC [5, 22]: 2210 ng·h/mL | Cmax [5, 22]: 660 ng/mL | Tmax [5, 22]: 1.5 h | half-life [5, 22]: 5.34 h | AUC [5, 23]: 36500 ng·h/mL | Cmax [5, 23]: 7580 ng/mL | Tmax [5, 23]: 2.12 h | half-life [5, 23]: 6.73 h | mutagenicity in the Ames Mutagenicity test [6]: non mutagenic | LD50 [7]: 793 mg/kg | AUC [8]: 6880 ng·h/mL | Cmax [8]: 2680 ng/mL | Tmax [8]: 2 h | half-life [8]: 3.41 h | AUC(0-t) ([9]; po, 25 mg): 6880 ng·h/mL | Cmax ([9]; po, 25 mg): 2680 ng/mL | Tmax ([9]; po, 25 mg): 2 h | half-life ([9]; po, 25 mg): 3.41 h | AUC(0-t) ([9]; Mice, 12.5 mg (Oral), read-out: AUClast): 2210 ng·h/mL | Cmax ([9]; Mice, 12.5 mg (Oral), read-out: Cmax): 660 ng/mL | half-life ([9]; Mice, 12.5 mg (Oral), read-out: T1/2 (converted)): 5.34 h | Tmax ([9]; Mice, 12.5 mg (Oral), read-out: Tmax): 1.5 h

NNC(=O)c1ccncc1 [Isoniazid]
dose giving 2 log reduction in the organs [2]: ≥ 25 mg/kg | Mean Log10CFU in organs of mice infected with sensitive strain of MTB, Lung [2, 10]: 3.20 ± 0.45 Log10CFU | Mean Log10CFU in organs of mice infected with sensitive strain of MTB, Spleen [2, 10]: 2.78 ± 0.30 Log10CFU | Mean Log10CFU in organs of mice infected with sensitive strain of MTB, Lung [2, 11]: 1.20 ± 0.98 Log10CFU | Mean Log10CFU in organs of mice infected with sensitive strain of MTB, Spleen [2, 11]: 1.35 ± 1.09 Log10CFU | Mean Log10CFU in organs of mice infected with sensitive strain of MTB, Lung [2, 12]: 1.91 ± 0.9 Log10CFU | Mean Log10CFU in organs of mice infected with sensitive strain of MTB, Spleen [2, 12]: 2.43 ± 0.39 Log10CFU | Mean Log10CFU in organs of mice infected with sensitive strain of MTB, Lung [2, 13]: 3.9 ± 0.45 Log10CFU | Mean Log10CFU in organs of mice infected with sensitive strain of MTB, Spleen [2, 13]: 3.73 ± 0.52 Log10CFU | Mean Log10CFU in organs of mice infected with sensitive strain of MTB, Lung [2, 14]: 3.94 ± 0.28 Log10CFU | Mean Log10CFU in organs of mice infected with sensitive strain of MTB, Spleen [2, 14]: 3.9 ± 0.37 Log10CFU | Mean Log10CFU in organs of mice infected with sensitive strain of MTB, Lung [2, 15]: 4.56 ± 0.24 Log10CFU | Mean Log10CFU in organs of mice infected with sensitive strain of MTB, Spleen [2, 15]: 4.93 ± 0.42 Log10CFU | Mean Log10CFU in organs of mice infected with sensitive strain of MTB, Lung [2, 16]: 3.01 ± 0.68 Log10CFU | Mean Log10CFU in organs of mice infected with sensitive strain of MTB, Spleen [2, 16]: 2.68 ± 0.89 Log10CFU | Mean Log10CFU in organs of mice infected with sensitive strain of MTB, Lung [2, 17]: 3.06 ± 0.83 Log10CFU | Mean Log10CFU in organs of mice infected with sensitive strain of MTB, Spleen [2, 17]: 2.41 ± 0.69 Log10CFU | Mean Log10CFU in organs of mice infected with sensitive strain of MTB, Lung [2, 18]: 3.19 ± 0.6 Log10CFU | Mean Log10CFU in organs of mice infected with sensitive strain of MTB, Spleen [2, 18]: 3.08 ± 0.44 Log10CFU | Mean Log10CFU in organs of mice infected with sensitive strain of MTB, Lung [2, 19]: 2.45 ± 0.60 Log10CFU | Mean Log10CFU in organs of mice infected with sensitive strain of MTB, Spleen [2, 19]: 2.30 ± 0.38 Log10CFU | Mean Log10CFU in organs of mice infected with sensitive strain of MTB, Lung [2, 20]: 2.07 ± 0.33 Log10CFU | Mean Log10CFU in organs of mice infected with sensitive strain of MTB, Spleen [2, 20]: 2.68 ± 0.36 Log10CFU | Mean Log10CFU in organs of mice infected with sensitive strain of MTB, Lung [2, 21]: 2.97 ± 0.46 Log10CFU | Mean Log10CFU in organs of mice infected with sensitive strain of MTB, Spleen [2, 21]: 2.89 ± 0.27 Log10CFU

NC(=O)c1cnccn1 [PYR, Pyrazinamide]
AUC [5, 24]: 649000 ng·h/mL | AUC [5, 23]: 477000 ng·h/mL | Cmax [5, 24]: 138000 ng/mL | Cmax [5, 23]: 146000 ng/mL | Tmax [5, 24]: 1.5 h | Tmax [5, 23]: 1 h | half-life [5, 24]: 2.09 h | half-life [5, 23]: 2.05 h

CO[C@H]1/C=C/O[C@@]2(C)Oc3c(C)c(O)c4c(O)c(c(/C=N/N5CCN(C)CC5)c(O)c4c3C2=O)NC(=O)/C(C)=C\C=C\[C@H](C)[C@H](O)[C@@H](C)[C@@H](O)[C@@H](C)[C@H](OC(C)=O)[C@@H]1C [Rifampicin]
Mean Log10CFU in organs of mice infected with sensitive strain of MTB, Lung [2, 10]: 2.75 ± 0.36 Log10CFU | Mean Log10CFU in organs of mice infected with sensitive strain of MTB, Spleen [2, 10]: 2.78 ± 0.42 Log10CFU | Mean Log10CFU in organs of mice infected with sensitive strain of MTB, Lung [2, 11]: 0.84 ± 1.10 Log10CFU | Mean Log10CFU in organs of mice infected with sensitive strain of MTB, Spleen [2, 11]: 1.21 ± 0.83 Log10CFU | Mean Log10CFU in organs of mice infected with sensitive strain of MTB, Lung [2, 12]: 1.84 ± 0.95 Log10CFU | Mean Log10CFU in organs of mice infected with sensitive strain of MTB, Spleen [2, 12]: 2.40 ± 0.7 Log10CFU | AUC [5, 24]: 148000 ng·h/mL | AUC [5, 23]: 195000 ng·h/mL | Cmax [5, 24]: 15200 ng/mL | Cmax [5, 23]: 19300 ng/mL | Tmax [5, 24]: 2.3 h | Tmax [5, 23]: 3.25 h
